Legend:
[1] = Acute toxicity in male Swiss albino mouse assessed as survival time at 900 mg/kg BW, po administered as single dose via gavage by up-and-down method; assay type: organism-based; details: in vivo
[2] = Acute toxicity in male Swiss albino mouse assessed as mortality rate at 450 to 50 mg/kg BW, po administered as single dose via gavage measured after 48 hrs by up-and-down method relative to control; assay type: organism-based; details: in vivo, at 50 to 450 mg/kg, dose 450-50 mg/kg
[3] = molecular target: Prostaglandin G/H synthase 1 (Homo sapiens, UniProt P23219); details: read-out: IC50
[4] = Acute toxicity in male Swiss albino mouse assessed as survival time at 650 mg/kg BW, po administered as single dose via gavage by up-and-down method; assay type: organism-based; details: in vivo
Beta-secretase 1 = Beta-secretase 1 (Homo sapiens, UniProt P56817); test: Inhibition of BACE-1 (unknown origin) 667-676- (2, 4-dinitrophenyl) Lys-Arg-Arg amide trifluoroacetate as substrate preincubated for 15 mins followed by substrate addition and measured after 2 hrs by fluorescence spectrometric analysis; details: read-out: IC50
Mus musculus [5] = test: Antioxidant activity against scopolamine-induced Albino mouse assessed as increase in GSH-Px level in brain at 5 mg/kg measured after 24 hrs; assay type: functional
[6] = Acute toxicity in male Swiss albino mouse assessed as survival time at 50 mg/kg BW, po administered as single dose via gavage by up-and-down method; assay type: organism-based; details: in vivo
[7] = Acute toxicity in male Swiss albino mouse assessed as mortality treated po single dose via gavage measured after 48 hrs by up-and-down method; assay type: organism-based; details: in vivo
[8] = Acute toxicity in male Swiss albino mouse assessed as seizures at 1200 mg/kg BW, po administered as single dose via gavage measured after 20 mins by up-and-down method; assay type: organism-based; details: in vivo
[9] = molecular target: T1, Amine oxidase [flavin-containing] B (Homo sapiens, UniProt P27338); test: Inhibition of human MAO-B using tyramine/benzylamine as substrate measured after 30 mins by fluorometric assay
T1 sequence (P27338 whole entry): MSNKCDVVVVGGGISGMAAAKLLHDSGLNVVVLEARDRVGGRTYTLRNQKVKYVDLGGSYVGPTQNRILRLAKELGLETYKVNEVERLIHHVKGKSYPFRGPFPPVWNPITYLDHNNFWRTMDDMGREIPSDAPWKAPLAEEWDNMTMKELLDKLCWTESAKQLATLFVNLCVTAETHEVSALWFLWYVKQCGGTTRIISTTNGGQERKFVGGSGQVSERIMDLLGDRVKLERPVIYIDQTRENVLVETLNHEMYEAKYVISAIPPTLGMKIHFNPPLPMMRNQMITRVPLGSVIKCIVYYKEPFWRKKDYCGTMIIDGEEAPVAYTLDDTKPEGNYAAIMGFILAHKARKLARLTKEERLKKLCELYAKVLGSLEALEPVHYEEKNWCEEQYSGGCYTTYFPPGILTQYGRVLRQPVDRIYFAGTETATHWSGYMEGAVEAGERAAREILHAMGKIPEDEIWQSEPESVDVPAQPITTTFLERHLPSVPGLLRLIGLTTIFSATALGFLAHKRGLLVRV

[10] = Acute toxicity in male Swiss albino mouse assessed as survival time at 450 mg/kg BW, po administered as single dose via gavage by up-and-down method; assay type: organism-based; details: in vivo
[11] = Acute toxicity in male Swiss albino mouse assessed as piloerection at 450 mg/kg BW, po administered as single dose via gavage measured after 1 hrs by up-and-down method; assay type: organism-based; details: in vivo
[12] = Acute toxicity in male Swiss albino mouse assessed as mortality rate at 900 mg/kg BW, po administered as single dose via gavage measured after 48 hrs by up-and-down method relative to control; assay type: organism-based; details: in vivo
[13] = molecular target: T2, Prostaglandin G/H synthase 2 (Homo sapiens, UniProt P35354)
T2 sequence (P35354 whole entry): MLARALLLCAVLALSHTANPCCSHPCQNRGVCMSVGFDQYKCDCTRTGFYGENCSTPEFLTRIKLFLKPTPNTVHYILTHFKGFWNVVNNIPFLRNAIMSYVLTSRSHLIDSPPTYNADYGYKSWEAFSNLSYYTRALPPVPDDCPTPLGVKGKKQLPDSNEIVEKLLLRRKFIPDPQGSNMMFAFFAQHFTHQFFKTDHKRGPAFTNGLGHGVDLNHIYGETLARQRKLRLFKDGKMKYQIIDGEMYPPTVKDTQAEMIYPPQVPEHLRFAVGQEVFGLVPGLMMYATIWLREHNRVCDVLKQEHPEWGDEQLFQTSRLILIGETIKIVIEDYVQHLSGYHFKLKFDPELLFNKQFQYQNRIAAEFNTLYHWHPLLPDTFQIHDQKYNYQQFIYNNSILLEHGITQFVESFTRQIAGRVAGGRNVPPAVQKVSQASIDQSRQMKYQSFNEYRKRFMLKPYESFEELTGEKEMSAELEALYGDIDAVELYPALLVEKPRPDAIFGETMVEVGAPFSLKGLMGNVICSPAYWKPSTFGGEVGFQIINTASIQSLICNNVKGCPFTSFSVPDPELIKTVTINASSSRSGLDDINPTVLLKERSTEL
Description: Inhibition of COX-2 (unknown origin) using arachidonic acid as substrate and in presence of TMPD preincubated for 5 mins followed by substrate addition and measured after 5 mins by UV visible spectrophotometric analysis

[14] = Acute toxicity in male Swiss albino mouse assessed as ataxia at 1200 mg/kg BW, po administered as single dose via gavage measured after 20 mins by up-and-down method; assay type: organism-based; details: in vivo
[15] = Acute toxicity in male Swiss albino mouse assessed as survival time at 1500 mg/kg BW, po administered as single dose via gavage by up-and-down method; assay type: organism-based; details: in vivo
Mus musculus [16] = test: Antioxidant activity against scopolamine-induced Albino mouse assessed as decrease in MDA level in brain at 5 mg/kg measured after 24 hrs; assay type: functional
Mus musculus [17] = test: Antioxidant activity against scopolamine-induced Albino mouse assessed as increase in SOD level in brain at 5 mg/kg measured after 24 hrs; assay type: functional
[18] = Neurotoxicity against human SH-SY5Y cells assessed as reduction in cell viability at 100 uM incubated for 24 hrs by MTT assay relative to control; assay type: toxicity, cell-based

Sequence of Prostaglandin G/H synthase 1 (P23219 whole entry): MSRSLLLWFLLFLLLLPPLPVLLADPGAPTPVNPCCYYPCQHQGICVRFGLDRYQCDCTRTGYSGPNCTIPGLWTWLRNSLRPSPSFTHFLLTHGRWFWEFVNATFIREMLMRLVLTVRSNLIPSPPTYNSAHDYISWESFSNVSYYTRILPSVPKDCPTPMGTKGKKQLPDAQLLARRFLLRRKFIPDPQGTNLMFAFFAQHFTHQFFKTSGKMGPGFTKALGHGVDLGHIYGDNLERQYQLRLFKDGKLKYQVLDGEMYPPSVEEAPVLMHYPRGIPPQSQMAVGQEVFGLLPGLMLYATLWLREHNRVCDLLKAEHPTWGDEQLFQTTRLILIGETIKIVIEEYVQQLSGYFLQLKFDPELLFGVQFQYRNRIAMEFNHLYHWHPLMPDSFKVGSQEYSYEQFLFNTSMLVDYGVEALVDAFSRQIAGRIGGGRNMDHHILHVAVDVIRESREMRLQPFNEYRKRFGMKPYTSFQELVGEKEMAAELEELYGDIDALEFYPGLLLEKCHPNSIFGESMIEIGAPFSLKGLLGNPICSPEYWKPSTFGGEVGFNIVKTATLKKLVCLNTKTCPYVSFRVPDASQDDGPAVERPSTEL
Sequence of Beta-secretase 1 (P56817 whole entry): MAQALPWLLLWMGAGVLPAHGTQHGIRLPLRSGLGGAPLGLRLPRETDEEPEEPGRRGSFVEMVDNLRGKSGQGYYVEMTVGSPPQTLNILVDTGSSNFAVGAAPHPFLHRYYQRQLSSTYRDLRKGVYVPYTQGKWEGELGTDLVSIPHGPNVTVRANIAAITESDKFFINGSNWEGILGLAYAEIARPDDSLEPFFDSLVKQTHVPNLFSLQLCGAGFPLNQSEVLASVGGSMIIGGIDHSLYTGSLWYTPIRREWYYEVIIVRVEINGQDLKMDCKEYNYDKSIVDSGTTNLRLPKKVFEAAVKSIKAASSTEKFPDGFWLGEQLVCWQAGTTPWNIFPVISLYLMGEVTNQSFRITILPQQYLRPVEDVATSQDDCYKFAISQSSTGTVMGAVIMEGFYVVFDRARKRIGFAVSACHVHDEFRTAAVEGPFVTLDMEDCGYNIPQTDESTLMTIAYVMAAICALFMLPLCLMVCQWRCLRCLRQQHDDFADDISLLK

COc1cc(/C=C/C(=O)Nc2ccc3sc(NCN4C(=O)CSC4=O)nc3c2)ccc1O
Time [1]: 2 h | mortality at 48 h [2]: 0% | IC50 [3]: 60.4 µM | Time [4]: 18 h | IC50 (Beta-secretase 1): 2.42 µM | Activity (Mus musculus [5]): 230 U/ml | Time [6]: > 48 h | LD100 ([7]; po, 48 h): 1500 mg/kg | LD50 at 48 h ([7]; male, Swiss albino): 800 mg/kg | Activity [8]: Toxic | IC50 [9]: 0.024 µM | Time [10]: > 48 h | Activity [11]: Toxic | mortality at 48 h [12]: 66.7% | IC50 [13]: 0.187 µM | Activity [14]: Toxic | Time [15]: 15 min | Activity (Mus musculus [16]): 1.95 nmol/mL | Activity (Mus musculus [17]): 95.03 U/ml | Activity [18]: 76%
